Test results taken from patent US10065972B2, “Bicyclic or tricyclic heterocyclic compound” (MITSUBISHI TANABE PHARMA CORPORATION, priority 2014, dated 2018).

Biological target: human recombinant KAT-II (Homo sapiens (Human), UniProt Q8N5Z0)
Assay: KAT-II inhibitory test
Assay type: biochemical
Conditions: 3.0 μmol/L kynurenine, 37° C., 1 hr, pH 8.0; kynurenic acid quantified by HPLC
Protocol: The compounds described in the above-mentioned Examples were used for the KAT-II inhibitory test.
Preparation of Human Recombinant KAT-II
Human recombinant KAT-II was prepared as follows.
His tag and maltose binding protein tag were added to the N-terminal of a gene encoding human KAT-II (Genbank accession number: AF481738.1), and the obtained gene was incorporated into pET32 (Merck Nihon Millipore), which is an Escherichia coli expression vector. Human recombinant KAT-II produced by BL21(DE3) Escherichia coli (Merck Nihon Millipore, 69450) transformed using the plasmid was purified using an amylose resin column (New England Biolabs, #800-21 L).
The inhibitory action of the test compound on human recombinant KAT-II was determined by the following method.
To a reaction mixture (45 μL) containing 3.0 μmol/L kynurenine, 10 μmol/L pyridoxal phosphate, 2.0 ng/μL human recombinant KAT-II, and 150 mmol/L tris(hydroxymethyl)aminomethane-acetate buffer (pH 8.0) was added a 10% dimethyl sulfoxide solution (5 μL) of each test compound prepared, and the mixture was reacted at 37° C. for 1 hr. After the reaction, 50% trichloroacetic acid (5 μL) was added to terminate the reaction.
The resultant kynurenic acid was quantified as follows by high performance liquid chromatography. An enzyme reaction mixture was separated by an octadecylsilane reversed-phase column (SC-50DS, Eicom Corporation; mobile phase: 250 mmol/L zinc acetate, 50 mmol/L sodium acetate, and 5.0% acetonitrile (pH 6.2)) incubated at 30° C., and kynurenic acid was quantified using a fluorescence detector (RF-20Axs, Shimadzu Corporation) at excitation wavelength 354 nm, detection wavelength 460 nm. The analytical curve was drawn every time by an external standard method. Each test compound was tested by dual measurement at each concentration.

Sequence of human recombinant KAT-II (Q8N5Z0 30-425): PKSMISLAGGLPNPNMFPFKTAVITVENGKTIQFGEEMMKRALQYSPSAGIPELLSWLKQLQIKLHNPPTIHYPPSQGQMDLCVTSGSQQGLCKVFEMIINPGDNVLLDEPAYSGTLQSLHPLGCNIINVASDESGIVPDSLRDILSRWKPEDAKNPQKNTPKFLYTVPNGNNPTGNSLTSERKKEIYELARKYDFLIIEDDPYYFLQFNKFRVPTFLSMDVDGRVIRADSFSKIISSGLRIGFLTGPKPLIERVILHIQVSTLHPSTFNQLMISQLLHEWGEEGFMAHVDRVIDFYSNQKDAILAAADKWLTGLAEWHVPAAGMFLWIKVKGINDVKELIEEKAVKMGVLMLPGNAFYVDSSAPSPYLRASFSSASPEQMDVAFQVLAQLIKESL

SMILES | IC50 [nM]
Cc1cc(=O)n2nc(N3C[C@@H]4C[C@@H]4[C@@H]3C(=O)NCc3ccccc3)sc2n1 (racemic) [Example 661, (1SR,2RS,5RS)-N-benzyl-3-(7-methyl-5-oxo-5H-[1,3,4]thiadiazolo[3,2-a]pyrimidin-2-yl)-3-azabicyclo[3.1.0]hexane-2-carboxamide] | 3900
Cn1c(CN2CCOCC2)nc2sc([C@H]3CCCN3C(=O)OCc3ccccc3)nc2c1=O [Example 8, (R)-2-{6-methyl-5-[(morpholin-4-yl)methyl]-7-oxo-6,7-dihydro[1,3]thiazolo[5,4-d]pyrimidin-2-yl}pyrrolidine-1-carboxylic acid benzyl ester] | 610
CCc1nc2sc([C@H]3CCCN3C(=O)NCc3ccccc3)nc2c(=O)n1C [Example 9, (R)-N-benzyl-2-(5-ethyl-6-methyl-7-oxo-6,7-dihydro[1,3]thiazolo[5,4-d]pyrimidin-2-yl)pyrrolidine-1-carboxamide] | 250
CC(C)n1c(C(F)(F)F)nc2sc([C@H]3CCCN3C(=O)NCc3ccccc3Cl)nc2c1=O [Example 11, (R)-N-(2-chlorobenzyl)-2-[7-oxo-6-(propan-2-yl)-5-trifluoromethyl-6,7-dihydro[1,3]thiazolo[5,4-d]pyrimidin-2-yl]pyrrolidine-1-carboxamide] | 6200
CCc1nc2sc([C@H]3CCCN3C(=O)NC3(c4ccccc4)CC3)nc2c(=O)n1C [Example 12, (R)-2-(5-ethyl-6-methyl-7-oxo-6,7-dihydro[1,3]thiazolo[5,4-d]pyrimidin-2-yl)-N-(1-phenylcyclopropyl)pyrrolidine-1-carboxamide] | 130
CCc1nc2sc([C@H]3CCCN3C(=O)N[C@@H]3CCc4ccccc43)nc2c(=O)n1C [Example 13, (R)-5-ethyl-2-{1-[((R)-indan-1-yl)aminocarbonyl]pyrrolidin-2-yl}-6-methyl-6,7-dihydro[1,3]thiazolo[5,4-d]pyrimidin-7-one] | 560
CCc1nc2sc([C@H]3CCCN3C(=O)CN3CCCc4ccccc43)nc2c(=O)n1C [Example 14, (R)-2-{1-[2-(3,4-dihydro-2H-quinolin-1-yl)acetyl]pyrrolidin-2-yl}-5-ethyl-6-methyl-6H-[1,3]thiazolo[5,4-d]pyrimidin-7-one] | 57
CCc1nc2sc([C@H]3CCCN3C(=O)NC(C)(C)c3ccccc3)nc2c(=O)n1C [Example 15, (R)-2-(5-ethyl-6-methyl-7-oxo-6,7-dihydro[1,3]thiazolo[5,4-d]pyrimidin-2-yl)-N-(1-methyl-1-phenylethyl)pyrrolidine-1-carboxamide] | 1100
CCc1nc2sc([C@H]3CCCN3C(=O)N[C@H](C)c3ccccc3)nc2c(=O)n1C [Example 17, (R)-2-(5-ethyl-6-methyl-7-oxo-6,7-dihydro[1,3]thiazolo[5,4-d]pyrimidin-2-yl)-N-((R)-1-phenylethyl)pyrrolidine-1-carboxamide] | 1600
Cc1noc(-c2nc3sc([C@H]4CCCN4C(=O)Oc4ccccc4)nc3c(=O)n2C)n1 [Example 19, (R)-2-[6-methyl-5-(3-methyl-[1,2,4]oxadiazol-5-yl)-7-oxo-6,7-dihydro[1,3]thiazolo[5,4-d]pyrimidin-2-yl]pyrrolidine-1-carboxylic acid phenyl ester] | 43
CCc1nc2sc([C@H]3CCCN3C(=O)Oc3ccccc3)nc2c(=O)n1C [Example 28, (R)-2-(5-ethyl-6-methyl-7-oxo-6,7-dihydro[1,3]thiazolo[5,4-d]pyrimidin-2-yl)pyrrolidine-1-carboxylic acid phenyl ester] | 25
Cc1nc2sc([C@H]3CCCN3C(=O)Oc3ccccc3)nc2c(=O)n1C1CCOCC1 [Example 32, (R)-2-[5-methyl-7-oxo-6-(tetrahydro-2H-pyran-4-yl)-6,7-dihydro[1,3]thiazolo[5,4-d]pyrimidin-2-yl]pyrrolidine-1-carboxylic acid phenyl ester] | 400
Cc1cccc(OC(=O)N2CCC[C@@H]2c2nc3c(=O)n(C)c(C4CCOCC4)nc3s2)c1 [Example 36, (R)-2-[6-methyl-7-oxo-5-(tetrahydro-2H-pyran-4-yl)-6,7-dihydro[1,3]thiazolo[5,4-d]pyrimidin-2-yl]pyrrolidine-1-carboxylic acid 3-methylphenyl ester] | 18
CC(C)c1nc2sc([C@H]3CCCN3C(=O)Oc3ccccc3)nc2c(=O)[nH]1 [Example 63, (R)-2-[7-oxo-5-(propan-2-yl)-6,7-dihydro[1,3]thiazolo[5,4-d]pyrimidin-2-yl]pyrrolidine-1-carboxylic acid phenyl ester] | 15
O=C(Oc1ccccc1)N1CCC[C@@H]1c1nc2c(=O)[nH]c(-c3ccccc3)nc2s1 [Example 65, (R)-2-(7-oxo-5-phenyl-6,7-dihydro[1,3]thiazolo[5,4-d]pyrimidin-2-yl)pyrrolidine-1-carboxylic acid phenyl ester] | 25
O=C(Oc1ccccc1)N1CCC[C@@H]1c1nc2c(=O)[nH]c(-c3ccc(F)cc3F)nc2s1 [Example 67, (R)-2-[5-(2,4-difluorophenyl)-7-oxo-6,7-dihydro[1,3]thiazolo[5,4-d]pyrimidin-2-yl]pyrrolidine-1-carboxylic acid phenyl ester] | 14
Cc1ccccc1-c1nc2sc([C@H]3CCCN3C(=O)Oc3ccccc3)nc2c(=O)[nH]1 [Example 69, (R)-2-[5-(2-methylphenyl)-7-oxo-6,7-dihydro[1,3]thiazolo[5,4-d]pyrimidin-2-yl]pyrrolidine-1-carboxylic acid phenyl ester] | 40
O=C(Oc1ccccc1)N1CCC[C@@H]1c1nc2c(=O)[nH]c(C3CCC(F)(F)CC3)nc2s1 [Example 74, (R)-2-[5-(4,4-difluorocyclohexyl)-7-oxo-6,7-dihydro[1,3]thiazolo[5,4-d]pyrimidin-2-yl]pyrrolidine-1-carboxylic acid phenyl ester] | 84
O=C(Oc1ccccc1)N1CCC[C@@H]1c1nc2c(=O)[nH]c(C3(CF)CC3)nc2s1 [Example 80, (R)-2-{5-[1-(fluoromethyl)cyclopropyl]-7-oxo-6,7-dihydro[1,3]thiazolo[5,4-d]pyrimidin-2-yl}pyrrolidine-1-carboxylic acid phenyl ester] | 8.6
C[C@H](c1nc2c(=O)[nH]c(C3(Cl)CC3)nc2s1)N(C)C(=O)Oc1ccccc1 [Example 85, N-{(R)-1-[5-(1-chlorocyclopropyl)-7-oxo-6,7-dihydro[1,3]thiazolo[5,4-d]pyrimidin-2-yl]ethyl}-N-methylcarbamic acid phenyl ester] | 170
Cc1cccc(OC(=O)N2CCC[C@@H]2c2nc3c(=O)[nH]c(C4(C#N)CC4)nc3s2)c1 [Example 94, (R)-2-[5-(1-cyanocyclopropyl)-7-oxo-6,7-dihydro[1,3]thiazolo[5,4-d]pyrimidin-2-yl]pyrrolidine-1-carboxylic acid 3-methylphenyl ester] | 6.1
COCC1(c2nc3sc([C@H]4CCCN4C(=O)Oc4ccccc4)nc3c(=O)[nH]2)CC1 [Example 96, (R)-2-{5-[1-(methoxymethyl)cyclopropyl]-7-oxo-6,7-dihydro[1,3]thiazolo[5,4-d]pyrimidin-2-yl}pyrrolidine-1-carboxylic acid phenyl ester] | 19
O=C(Cc1ccccc1)N1CCC[C@@H]1c1nc2c(=O)[nH]c(C3(C(F)(F)F)CC3)nc2s1 [Example 97, 2-[(R)-1-(phenylacetyl)pyrrolidin-2-yl]-5-[1-(trifluoromethyl)cyclopropyl]-6H-[1,3]thiazolo[5,4-d]pyrimidin-7-one] | 13
Cc1cccc(CC(=O)N2CCC[C@@H]2c2nc3c(=O)[nH]c(C4(C(F)(F)F)CC4)nc3s2)c1 [Example 98, 2-{(R)-1-[2-(3-methylphenyl)acetyl]pyrrolidin-2-yl}-5-[1-(trifluoromethyl)cyclopropyl]-6H-[1,3]thiazolo[5,4-d]pyrimidin-7-one] | 37
CC1(Oc2nc3sc([C@H]4CCCN4C(=O)Oc4ccccc4)nc3c(=O)[nH]2)CC1 [Example 104, (R)-2-[5-(1-methylcyclopropoxy)-7-oxo-6,7-dihydro[1,3]thiazolo[5,4-d]pyrimidin-2-yl]pyrrolidine-1-carboxylic acid phenyl ester] | 73
O=C(Oc1ccccc1)N1CCC[C@@H]1c1nc2c(=O)[nH]c(OCC(F)(F)F)nc2s1 [Example 105, (R)-2-[7-oxo-5-(2,2,2-trifluoroethoxy)-6,7-dihydro[1,3]thiazolo[5,4-d]pyrimidin-2-yl]pyrrolidine-1-carboxylic acid phenyl ester] | 65
CN(C)c1nc2sc([C@H]3CCCN3C(=O)Oc3ccccc3)nc2c(=O)[nH]1 [Example 106, (R)-2-[5-(N,N-dimethylamino)-7-oxo-6,7-dihydro[1,3]thiazolo[5,4-d]pyrimidin-2-yl]pyrrolidine-1-carboxylic acid phenyl ester] | 69
O=C(Oc1ccccc1)N1CCC[C@@H]1c1nc2c(=O)[nH]c(N3CCCCC3)nc2s1 [Example 107, (R)-2-[7-oxo-5-(piperidin-1-yl)-6,7-dihydro[1,3]thiazolo[5,4-d]pyrimidin-2-yl]pyrrolidine-1-carboxylic acid phenyl ester] | 46
